Results on eight compounds are retold here after patent US12419884B2, “Compositions and methods for treating iron overload” (BRIGHAM YOUNG UNIVERSITY, priority 2018, dated 2025).

For assay [1], the system named is hepcidin secretion from HepG2 cells. The assay is described as follows: hepcidin secretion from IL-6 inflamed HepG2 cells, ELISA. The assay is classed as cell-based. The note with it: IL-6 (10 ng/mL), inhibitors at 10 ng/mL, FIG. 8. The method, then: HepG2 cells were cultured with controls not treated with additional treatments. The remaining cells were all treated to induce inflammation IL-6 (10 ng/mL). Inhibitors were added at 10 ng/mL to block furin and prevent the cleavage of prohepcidin to hepcidin. Hepcidin secreted into the growth media was measured by ELISA.
Background: An ELISA detects its analyte on a solid surface through an enzyme-linked reagent.

The next assay has as its target furin (Homo sapiens, UniProt P09958). Nature of the assay: furin fluorescence assay / enzyme assays with purified furin. The note with it: in vitro fluorescence assay; 55, 110 and 220 micromolar doses; FIG. 7.
For assay [2], the system named is hepcidin secretion from HepG2 cells. The assay is described as follows: hepcidin secretion from IL-6 and BMP-9 inflamed HepG2 cells, Mass Spectrometry. It counts as cell-based. The note with it: IL-6 and BMP-9 (10 ng/mL each), inhibitors at 10 micromolar, FIG. 9.
Description: HepG2 cells were cultured with controls not treated with additional treatments. The remaining cells were all treated to induce inflammation IL-6 and BMP-9 (both cytokines were dosed at 10 ng/mL). Inhibitors were added at 10 micromolar to block furin and prevent the cleavage of prohepcidin to hepcidin. Hepcidin secreted into the growth media was measured by Mass Spectrometry.

Sequence of furin (P09958 108-794, species assumed): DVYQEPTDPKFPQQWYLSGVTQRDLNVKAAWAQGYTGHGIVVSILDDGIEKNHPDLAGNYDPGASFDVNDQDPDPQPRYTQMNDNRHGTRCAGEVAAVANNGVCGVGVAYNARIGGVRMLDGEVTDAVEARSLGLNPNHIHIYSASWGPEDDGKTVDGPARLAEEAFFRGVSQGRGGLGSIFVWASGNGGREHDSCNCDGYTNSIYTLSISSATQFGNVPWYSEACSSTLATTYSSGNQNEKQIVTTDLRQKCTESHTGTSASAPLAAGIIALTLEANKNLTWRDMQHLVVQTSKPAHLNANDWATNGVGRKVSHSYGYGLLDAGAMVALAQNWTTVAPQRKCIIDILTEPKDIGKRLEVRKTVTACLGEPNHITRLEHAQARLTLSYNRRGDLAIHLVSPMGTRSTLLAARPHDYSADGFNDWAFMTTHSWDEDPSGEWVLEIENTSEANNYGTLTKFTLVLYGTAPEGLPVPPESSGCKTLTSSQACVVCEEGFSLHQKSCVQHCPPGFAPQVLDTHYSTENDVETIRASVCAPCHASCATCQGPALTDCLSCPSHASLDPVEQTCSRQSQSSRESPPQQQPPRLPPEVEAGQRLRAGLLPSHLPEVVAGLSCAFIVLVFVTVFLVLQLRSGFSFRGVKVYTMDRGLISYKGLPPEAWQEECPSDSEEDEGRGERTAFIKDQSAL

For the compound `COC(=O)N[C@H](C(=O)N[C@@H](Cc1ccccc1)[C@@H](O)CN(Cc1ccc(-c2ccccn2)cc1)NC(=O)[C@@H](NC(=O)OC)C(C)(C)C)C(C)(C)C` [Atazanvir, methyl N-[(1S)-1-{[(2S,3S)-3-hydroxy-4-[(2S)-2-[(methoxycarbonyl)amino]-3,3-dimethyl-N′-{[4-(pyridin-2-yl)phenyl]methyl}butanehydrazido]-1-phenylbutan-2-yl]carbamoyl}-2,2-dimethylpropyl]carbamate], in assay [1], the “inhibition of hepcidin secretion” value was “showed inhibition of hepcidin secretion”.

As to `CC(C)CN(C[C@@H](O)[C@H](Cc1ccccc1)NC(=O)O[C@H]1CO[C@H]2OCC[C@H]21)S(=O)(=O)c1ccc(N)cc1` [Darunavir, [(1R,5S,6R)-2,8-dioxabicyclo[3.3.0]oct-6-yl] N-[(2S,3R)-4-[(4-aminophenyl)sulfonyl-(2-methylpropyl)amino]-3-hydroxy-1-phenyl-butan-2-yl]carbamate], the furin inhibition entry on furin is on record as “most potent furin inhibition”.

For `Cc1cccc(C)c1OCC(=O)N[C@@H](Cc1ccccc1)[C@@H](O)C[C@H](Cc1ccccc1)NC(=O)[C@H](C(C)C)N1CCCNC1=O` [Lopinavir, (2S)—N-[(2S,4S,5S)-5-[2-(2,6-dimethylphenoxy)acetamido]-4-hydroxy-1,6-diphenylhexan-2-yl]-3-methyl-2-(2-oxo-1,3-diazinan-1-yl)butanamide], in assay [1], the “inhibition of hepcidin secretion” value was “showed inhibition of hepcidin secretion”.

For the compound `Cc1c(O)cccc1C(=O)N[C@@H](CSc1ccccc1)[C@H](O)CN1C[C@H]2CCCC[C@H]2C[C@H]1C(=O)NC(C)(C)C` [Nelfinavir, (3S,4aS,8aS)—N-tert-butyl-2-[(2R,3R)-2-hydroxy-3-[(3-hydroxy-2-methylphenyl)formamido]-4-(phenylsulfanyl)butyl]-decahydroisoquinoline-3-carboxamide], the furin inhibition result on furin is given as “most potent furin inhibition”.

Regarding `CC(C)c1nc(CN(C)C(=O)N[C@H](C(=O)N[C@@H](Cc2ccccc2)C[C@H](O)[C@H](Cc2ccccc2)NC(=O)OCc2cncs2)C(C)C)cs1` [Ritonavir], the “inhibition of hepcidin secretion” value in assay [2] is listed as “small inhibitory effect”. For the same compound, on furin, the furin inhibition result was “most potent furin inhibition”.

In the case of `CC(C)(C)NC(=O)[C@@H]1CC2CCCCC2CN1C[C@@H](O)[C@H](Cc1ccccc1)NC(=O)[C@H](CC(N)=O)NC(=O)c1ccc2ccccc2n1` (stereo partly drawn) [Saquinavir, (2S)—N-[(2S,3R)-4-[(3S)-3-(tert-butylcarbamoyl)-decahydroisoquinolin-2-yl]-3-hydroxy-1-phenylbutan-2-yl]-2-(quinolin-2-yl-formamido)butanediamide], the furin inhibition result on furin is recorded as “very weak dose dependent inhibition of furin”.

In the case of `CC(C)CN(C[C@@H](OP(=O)(O)O)[C@H](Cc1ccccc1)NC(=O)O[C@H]1CCOC1)S(=O)(=O)c1ccc(N)cc1` [fosamprenavir], the “inhibition of hepcidin secretion” value in assay [1] was “showed inhibition of hepcidin secretion”.

In the case of `CC(C)(C)NC(=O)[C@@H]1CN(Cc2cccnc2)CCN1C[C@@H](O)C[C@@H](Cc1ccccc1)C(=O)N[C@H]1c2ccccc2C[C@H]1O` [indinavir, (2S)-1-[(2S,4R)-4-benzyl-2-hydroxy-4-{[(1S,2R)-2-hydroxy-2,3-dihydro-1Hinden-1-yl]carbamoyl}butyl]-N-tert-butyl-4-(pyridin-3-ylmethyl)piperazine-2-carboxamide], the “inhibition of hepcidin secretion” value in assay [2] is on record as “more potent response”.
